Measured values from US20260098061A1, “EPHA2-BINDING PENDING PEPTIDE AND COMPOSITION COMPRISING SAME” (PeptiDream Inc., priority 2022, published 2026).
Numbered stars: 1 amine (or outer) side, 2 acyl side, 3 side chain; on linkers, the order of the positions; unused ones are H or OH. Bridge positions count the residues as written; N and C are the ends. Square brackets hold non-standard residues; d marks the D form. Side chains are listed from the residue outwards. Peptide text beside a SMILES is read from it. * marks the point of attachment. NH(1-deoxy-D-glucityl) = OC[C@@H](O)[C@@H](O)[C@H](O)[C@@H](O)CN*; Trp(1-Me,7-Cl) = Cn1cc(C[C@H](N)C(=O)O)c2cccc(Cl)c21; Ala(2-NH2-4-pyridyl) = Nc1cc(C[C@H](N)C(=O)O)ccn1; dPhe(3-CONH2) = NC(=O)c1cccc(C[C@@H](N)C(=O)O)c1; Piperazinyl(4-CH2COOH) = O=C(O)CN1CCN(*)CC1; Trp(1-Me) = Cn1cc(C[C@H](N)C(=O)O)c2ccccc21; 3Pal(6-NH2) = Nc1ccc(C[C@H](N)C(=O)O)cn1; NMe3Pal = CN[C@@H](Cc1cccnc1)C(=O)O; NMeF = CN[C@@H](Cc1ccccc1)C(=O)O; hCit = NC(=O)NCCCC[C@H](N)C(=O)O; 4Pal = N[C@@H](Cc1ccncc1)C(=O)O; Gly(cBu) = N[C@H](C(=O)O)C1CCC1; NMeE = CN[C@@H](CCC(=O)O)C(=O)O; Aad = N[C@@H](CCCC(=O)O)C(=O)O; Cba = N[C@@H](CC1CCC1)C(=O)O; CO = O=C([*:1])[*:2]

Target: T1, Recombinant Human EphA2 Fc Protein (Homo sapiens, UniProt P29317)
T1 construct: purchased Elabscience
Test: SPR interaction analysis (Biacore T200), kinetics of peptides against EphA2
Type: binding
Conditions: Recombinant Human EphA2 Fc Protein captured by Human Antibody Capture kit; single-cycle kinetics; 25° C.; HBS-P+ buffer with 1% DMSO
In short: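 KD derived from ka and kd, fitted on baseline-subtracted sensorgrams from single-cycle kinetics of five peptide dilutions. Running buffer: HBS-P+ (pH 7.4) plus 1% DMSO, 25° C, Biacore T200. Recombinant human EphA2-Fc held on an antibody capture surface.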

SMILES	Kd
C[C@@H](O)[C@@H]1NC(=O)[C@H](Cc2cn(C)c3ccccc23)NC(=O)[C@H](CCCCNC(=O)N2CCN(CC(=O)O)CC2)NC(=O)[C@H](Cc2cn(C)c3c(Cl)cccc23)NC(=O)[C@H](CCC(=O)O)N(C)C(=O)[C@H](CCCC(N)=O)NC(=O)[C@H](C2CCC2)NC(=O)[C@H](CC(N)=O)NC(=O)[C@H](Cc2cccnc2)N(C)C(=O)[C@@H](Cc2cccc(C(N)=O)c2)NC(=O)CSC[C@@H](C(N)=O)NC(=O)[C@H](CCCC(N)=O)NC1=O [PDC_EphA2-00019440, df3CON-Me3Py-N-Cbg-Hgn-MeE-W1Me7Cl-KCOpipzaa-W1Me-T-Hgn-C-NH2] ({CH2CO}-[dPhe(3-CONH2)][NMe3Pal]N[Gly(cBu)][Aad](NH2)[NMeE][Trp(1-Me,7-Cl)]K([CO-Piperazinyl(4-CH2COOH)])[Trp(1-Me)]T[Aad](NH2)C-NH2; thioether N-12)	< 1 nM
C[C@@H](O)[C@@H]1NC(=O)[C@H](Cc2cn(C)c3ccccc23)NC(=O)[C@H](CCCCNC(=O)N2CCN(CC(=O)O)CC2)NC(=O)[C@H](Cc2cn(C)c3c(Cl)cccc23)NC(=O)[C@H](Cc2ccccc2)N(C)C(=O)[C@H](CCCCNC(=O)N2CCN(CC(=O)O)CC2)NC(=O)[C@H](C2CCC2)NC(=O)[C@H](CC(N)=O)NC(=O)[C@H](Cc2cccnc2)N(C)C(=O)[C@@H](Cc2cccc(C(N)=O)c2)NC(=O)CSC[C@@H](C(N)=O)NC(=O)[C@H](CCCC(N)=O)NC1=O [PDC_EphA2-00019441, df3CON-Me3Py-A-Cbg-KCOpipzaa-MeF-W1Me7Cl-KCOpipzaa-W1Me-T-Hgn-C-NH2] ({CH2CO}-[dPhe(3-CONH2)][NMe3Pal]N[Gly(cBu)]K([CO-Piperazinyl(4-CH2COOH)])[NMeF][Trp(1-Me,7-Cl)]K([CO-Piperazinyl(4-CH2COOH)])[Trp(1-Me)]T[Aad](NH2)C-NH2; thioether N-12)	< 1 nM
C[C@@H](O)[C@@H]1NC(=O)[C@H](Cc2cn(C)c3ccccc23)NC(=O)[C@H](CCC(=O)NC[C@H](O)[C@@H](O)[C@H](O)[C@H](O)CO)NC(=O)[C@H](Cc2cn(C)c3c(Cl)cccc23)NC(=O)[C@H](Cc2ccccc2)N(C)C(=O)[C@H](CCCCNC(=O)N2CCN(CC(=O)O)CC2)NC(=O)[C@H](C2CCC2)NC(=O)[C@H](CC(N)=O)NC(=O)[C@H](Cc2cccnc2)N(C)C(=O)[C@@H](Cc2cccc(C(N)=O)c2)NC(=O)CSC[C@@H](C(N)=O)NC(=O)[C@H](CCCC(N)=O)NC1=O [PDC_EphA2-00019442, df3CON-Me3Py-N-Cbg-KCOpipzaa-MeF-W1Me7Cl-Qglucamine-W1Me-T-Hgn-C-NH2] ({CH2CO}-[dPhe(3-CONH2)][NMe3Pal]N[Gly(cBu)]K([CO-Piperazinyl(4-CH2COOH)])[NMeF][Trp(1-Me,7-Cl)]E(NH(1-deoxy-D-glucityl))[Trp(1-Me)]T[Aad](NH2)C-NH2; thioether N-12)	< 1 nM
CC(C)C[C@@H]1NC(=O)[C@H](Cc2ccncc2)NC(=O)[C@H](Cc2ccccc2)NC(=O)CSC[C@@H](C(=O)NCC(N)=O)NC(=O)[C@H](Cc2cn(C)c3ccccc23)NC(=O)[C@H](Cc2ccccc2)N(C)C(=O)[C@H](Cc2cn(C)c3ccccc23)NC(=O)CNC1=O [PDC_EphA2-00020295-L092, F-4Py-L-G-W1Me-MeF-W1Me-C-G-NH2] ({CH2CO}-F[4Pal]LG[Trp(1-Me)][NMeF][Trp(1-Me)]CG-NH2; thioether N-8)	100 to 400 nM
CC(C)C[C@@H]1NC(=O)[C@H](Cc2ccnc(N)c2)NC(=O)[C@H](Cc2ccccc2)NC(=O)CSC[C@@H](C(N)=O)NC(=O)[C@H](Cc2cn(C)c3ccccc23)NC(=O)[C@H](Cc2ccccc2)N(C)C(=O)[C@H](Cc2cn(C)c3ccccc23)NC(=O)[C@H](CCCCNC(N)=O)NC1=O [PDC_EphA2-00020708, F-4Py2NH2-L-Hcit-W1Me-MeF-W1Me-C-NH2] ({CH2CO}-F[Ala(2-NH2-4-pyridyl)]L[hCit][Trp(1-Me)][NMeF][Trp(1-Me)]C-NH2; thioether N-8)	100 to 400 nM
C[C@H]1NC(=O)CSC[C@@H](C(=O)NCC(N)=O)NC(=O)[C@H](Cc2cn(C)c3ccccc23)NC(=O)[C@H](CCCCNC(N)=O)NC(=O)[C@H](Cc2cn(C)c3ccccc23)NC(=O)[C@H](CC(N)=O)NC(=O)[C@H]([C@@H](C)O)NC(=O)[C@H](CC2CCC2)NC(=O)[C@H](CC(N)=O)NC(=O)[C@H](Cc2ccccc2)N(C)C1=O [PDC_EphA2-00021407-L092, da-MeF-N-Cba-T-N-W1Me-Hcit-W1Me-C-G-NH2] ({CH2CO}-[dA][NMeF]N[Cba]TN[Trp(1-Me)][hCit][Trp(1-Me)]CG-NH2; thioether N-10)	100 to 400 nM
CC(C)C[C@@H]1NC(=O)[C@H](CC(N)=O)NC(=O)[C@H](Cc2ccncc2)NC(=O)[C@H](Cc2ccccc2)NC(=O)CSC[C@@H](C(=O)NCC(N)=O)NC(=O)[C@H](Cc2cn(C)c3ccccc23)NC(=O)[C@H](Cc2ccc(N)nc2)NC(=O)[C@H](Cc2cn(C)c3ccccc23)NC(=O)[C@H](Cc2ccccc2)N(C)C(=O)[C@H](CCC(=O)O)NC1=O [PDC_EphA2-00022057-L092, F-4Py-N-L-E-MeF-W1Me-3Py6NH2-W1Me-C-G-NH2] ({CH2CO}-F[4Pal]NLE[NMeF][Trp(1-Me)][3Pal(6-NH2)][Trp(1-Me)]CG-NH2; thioether N-10)	10 to 100 nM
CC(C)C[C@@H]1NC(=O)[C@H](CC(N)=O)NC(=O)[C@H](Cc2c[nH]cn2)NC(=O)[C@H](Cc2ccccc2)NC(=O)CSC[C@@H](C(N)=O)NC(=O)[C@H](Cc2cn(C)c3ccccc23)NC(=O)[C@H](CCCCNC(N)=O)NC(=O)[C@H](Cc2cn(C)c3ccccc23)NC(=O)[C@H](Cc2ccccc2)N(C)C(=O)[C@H](CO)NC1=O [PDC_EphA2-00022417, F-H-N-L-S-MeF-W1Me-Hcit-W1Me-C-NH2] ({CH2CO}-FHNLS[NMeF][Trp(1-Me)][hCit][Trp(1-Me)]C-NH2; thioether N-10)	10 to 100 nM
CC(C)C[C@@H]1NC(=O)[C@H](Cc2ccnc(N)c2)NC(=O)[C@H](Cc2ccccc2)NC(=O)CSC[C@@H](C(=O)NCC(N)=O)NC(=O)[C@H](Cc2cn(C)c3ccccc23)NC(=O)[C@H](Cc2ccccc2)N(C)C(=O)[C@H](Cc2cn(C)c3ccccc23)NC(=O)[C@H](CCCCNC(N)=O)NC1=O [PDC_EphA2-00022601, F-4Py2NH2-L-Hcit-W1Me-MeF-W1Me-C-G-NH2] ({CH2CO}-F[Ala(2-NH2-4-pyridyl)]L[hCit][Trp(1-Me)][NMeF][Trp(1-Me)]CG-NH2; thioether N-8)	100 to 400 nM
CC(=O)NCCCC[C@H](NC(=O)[C@@H]1CSCC(=O)N[C@@H](Cc2ccccc2)C(=O)N[C@@H](Cc2ccnc(N)c2)C(=O)N[C@@H](CC(C)C)C(=O)N[C@@H](CCCCNC(N)=O)C(=O)N[C@@H](Cc2cn(C)c3ccccc23)C(=O)N(C)[C@@H](Cc2ccccc2)C(=O)N[C@@H](Cc2cn(C)c3ccccc23)C(=O)N1)C(N)=O [PDC_EphA2-00022602, F-4Py2NH2-L-Hcit-W1Me-MeF-W1Me-C-KAc-NH2] ({CH2CO}-F[Ala(2-NH2-4-pyridyl)]L[hCit][Trp(1-Me)][NMeF][Trp(1-Me)]CK(Ac)-NH2; thioether N-8)	100 to 400 nM
CC(=O)NCCCC[C@@H](NC(=O)[C@@H]1CSCC(=O)N[C@@H](Cc2ccccc2)C(=O)N[C@@H](Cc2ccnc(N)c2)C(=O)N[C@@H](CC(C)C)C(=O)N[C@@H](CCCCNC(N)=O)C(=O)N[C@@H](Cc2cn(C)c3ccccc23)C(=O)N(C)[C@@H](Cc2ccccc2)C(=O)N[C@@H](Cc2cn(C)c3ccccc23)C(=O)N1)C(N)=O [PDC_EphA2-00022603, F-4Py2NH2-L-Hcit-W1Me-MeF-W1Me-C-dkAc-NH2] ({CH2CO}-F[Ala(2-NH2-4-pyridyl)]L[hCit][Trp(1-Me)][NMeF][Trp(1-Me)]C[dK](Ac)-NH2; thioether N-8)	100 to 400 nM
